From PMC3492248, “Src Kinase Regulation in Progressively Invasive Cancer” (PLoS ONE, 2012)
Like-named read-outs stand apart in the source and are kept apart here. Where a SMILES comes first, the peptide text is derived from it. [ ]: non-standard residue; d: D form. The star is where a group is joined. 5FAM = O=C1OC2(c3ccc(O)cc3Oc3cc(O)ccc32)c2ccc(C(=O)*)cc21; Orn = NCCC[C@H](N)C(=O)O

Experiment: Stability of Src peptide substrate 1 in prostate cell lysates
Format: in vitro ADME, human
Conditions: for % Remaining Parent / remaining at 1 h: M-PER lysis buffer, no ATP/Mg2+, 1 h; for remaining at 1 h: read-out: % Remaining Parent
Procedure: Peptides commonly suffer protease-catalyzed degradation in cells as well as in cell lysates. Consequently, prior to examining Src kinase-catalyzed phosphorylation of peptide 1 with lysates, we monitored the stability of the peptide as a function of time. Cells were lysed using Pierce’s M-PER mammalian lysis buffer and, in the absence of ATP and Mg^2+ (i.e. no observable kinase activity), the lysate was added to peptide 1. Only approximately 10% of the peptide is degraded after 1 h (Table S1). Since the phosphorylation rate is measured within 10 min of incubation (Fig. S1), the peptide is sufficiently stable for our needs.
Capillary electrophoresis was performed on a ProteomeLab PA800 system equipped with a laser-induced fluorescence (LIF) detector (Beckman Coulter). The LIF was excited using the 488 nm argon laser. A fused-silica capillary (30/20 cm total/effective length, 50/360 µm inner/outer diameter) was used for separation (Polymicro Technologies). Prior to installation, capillaries were pretreated with 0.1 M NaOH for 12 h, distilled water for 1 h, 0.1 M HCl for 6 h and water again for 12 h. The samples were hydrodynamically injected and separated at 25°C at a constant voltage of 12 kV. The running buffer was 100 mM Borate/100 mM SDS buffer at pH 7.7. Before each run, the capillary was rinsed with 0.1 M NaOH, distilled water, and then the running buffer for 2 min under 20 psi pressure. Data was collected and analyzed using 32 Karat Software (Version 8.0, Beckman Coulter).
All cell lines were acquired from ATCC and grown in a humidified incubator at 37°C with 5% CO2. PZ-HPV-7, RWPE1, WPE1-NA22, WPE1-NB14, WPE1-NB11 and WPE1-NB26 cell lines were cultured in Keratinocyte Serum Free Medium (K-SFM) supplied with 0.05 mg/mL bovine pituitary extract (BPE) and 5 ng/mL epidermal growth factor (EGF) (all provided as a kit from Invitrogen), and 1% penicillin/streptomycin (P/S; Invitrogen). CWR22Rv1 cells were cultured in RPMI-1640 medium (Invitrogen) supplemented with 10% heat-inactivated fetal bovine serum (HI-FBS, Invitrogen) and 1% P/S. DU145 cells were cultured in Eagle’s Minimum Essential Medium (EMEM, ATCC) supplemented with 10% HI-FBS and 1% P/S. PC3 cells were cultured in F-12K medium (ATCC) supplemented with 10% HI-FBS and 1% P/S. Cell lysates were prepared as follows: confluent cells were first trypsinized and collected into 15 mL tubes in the presence of FBS-containing buffer or medium and then washed (3X) with ice cold DPBS buffer. The cells were lysed using M-PER mammalian protein extraction reagent mixed with 5/100 (v/v) Halt protease and phosphatase inhibitor cocktail EDTA-free (Thermo Fisher Scientific) for 10 min at 4°C. Cell debris was removed by centrifuging samples at 14,000 x g for 10 min at 4°C. The total protein concentrations were determined using Dc Protein assay (Bio-Rad).
Cell Line % Remaining Parent

Compound: CC[C@H](C)[C@H](NC(=O)[C@H](CCC(=O)O)NC(=O)[C@H](CCC(=O)O)NC(=O)[C@H](CCC(=O)O)NC(=O)[C@H](CCCNC(C)=O)NC(=O)c1ccc2c(c1)C(=O)OC21c2ccc(O)cc2Oc2cc(O)ccc21)C(=O)N[C@@H](Cc1ccc(O)cc1)C(=O)NCC(=O)N[C@@H](CCC(=O)O)C(=O)N[C@@H](Cc1ccccc1)C(=O)N[C@@H](CCCNC(C)=O)C(N)=O [peptide 1] (5FAM-[Orn](Ac)EEEIYGEF[Orn](Ac)-NH2)
- % Remaining Parent (DU145 cell lysate): 92.9 ± 0.5%
- % Remaining Parent (PC3 cell lysate): 89.2 ± 2.2%
- % Remaining Parent (WPE1-NA22 cell lysate): 92.4 ± 0.8%
- % Remaining Parent (WPE1-NB14 cell lysate): 91.4 ± 1.2%
- % Remaining Parent (WPE1-NB26 cell lysate): 91.0 ± 1.5%
- metabolised at 1 h (human, prostate cell lysates, prostate cell lysate (M-PER mammalian lysis buffer), absence of ATP and Mg2+, after 1 h, read-out: peptide degraded): ~10%
- remaining at 1 h (human, PZ-HPV-7 cell lysate): 92.4 ± 0.2%
- remaining at 1 h (human, RWPE1 cell lysate): 91 ± 0.6%
- remaining at 1 h (human, WPE1-NB11 cell lysate): 89.8 ± 1.5%
